# Reference: ChEMBL document CHEMBL1125779, “Synthesis and evaluation of some nitrobenzenesulfonamides containing nitroisopropyl and (ureidooxy)methyl groups as novel hypoxic cell selective cytotoxic agents” (J Med Chem, 1991)
# Assay: Partition coefficient was measured in n-octanol at the PH 7.4 buffer
# Format: physicochemical
# Settings: octanol/water
row,Partition coefficient,SMILES
1,0.37,CN(CCN)S(=O)(=O)c1ccc(C(C)(C)[N+](=O)[O-])c([N+](=O)[O-])c1
2,0.28,CNCCN(C)S(=O)(=O)c1ccc(CONC(N)=O)c([N+](=O)[O-])c1
3,0.4,O=[N+]([O-])c1nccn1CC(O)CN1CCCCC1 (stereo not drawn) [PIMONIDAZOLE]
